In publication PMC6934184, “Selective DNA-PKcs inhibition extends the therapeutic index of localized radiotherapy and chemotherapy” (The Journal of Clinical Investigation, 2019):

Target: T1, PRKACG (PRKAC gamma) (Homo sapiens, UniProt P22612)
T1 construct: purchased Thermo Fisher Scientific (Life Technologies) SelectScreen
Assay: SelectScreen LanthaScreen
Type: binding
Details: read-out: % displacement
Method in brief: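 SelectScreen broad panel; activity (Z'LYTE, Adapta) plus binding formats. ATP: Km app for CSF1R Z'LYTE; 10 for CAMK1 Adapta. Readout = % per kinase.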

T1 sequence (P22612 whole entry): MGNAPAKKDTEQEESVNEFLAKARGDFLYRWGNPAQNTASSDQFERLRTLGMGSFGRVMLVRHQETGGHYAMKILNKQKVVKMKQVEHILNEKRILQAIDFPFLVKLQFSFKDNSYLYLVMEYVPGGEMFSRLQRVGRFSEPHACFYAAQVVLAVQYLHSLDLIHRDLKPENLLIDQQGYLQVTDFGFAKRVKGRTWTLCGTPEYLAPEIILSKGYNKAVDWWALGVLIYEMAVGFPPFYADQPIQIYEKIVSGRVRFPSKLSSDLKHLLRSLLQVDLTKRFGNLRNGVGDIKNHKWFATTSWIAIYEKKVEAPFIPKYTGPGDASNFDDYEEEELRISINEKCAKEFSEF

SMILES: CN(C(=O)CN1CCOCC1)c1ccc2sc3c(-c4cccc5c(=O)cc(N6CC7CCC(C6)O7)oc45)cccc3c2c1 [NU5455]
- inhibition at 1 µM: -0.2%
